Test results as given in the supplement of paper PMC10721915.
± gives the standard deviation of the averaged measurements.

Tests used:
Experiment in all cases: relative cell growth vs untreated control (GI, NCI-DTP normalisation with time-zero) (fraction of control growth); higher = more growth / less inhibition
Settings in all cases: treatment time: 120 h
A549 = tested on: A549
Method: (§1)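 Cancer cell lines in 96-well plates were treated 48 h after seeding with M4076 (ATM inhibitor) and berzosertib (ATR inhibitor), alone or mixed, in 4-fold dilutions for 120 h. Protein was read by sulforhodamine B staining, background-subtracted and normalised NCI-DTP style to untreated control growth. Rows with one concentration equal to 0 are monotherapy.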

BXPC3 = tested on: BXPC3
Method: as §1

COLO205 = tested on: COLO205
Method: as §1

DU145 = tested on: DU145
Method: as §1

HL60 = tested on: HL60
Method: as §1

HT1080 = tested on: HT1080
Method: as §1

MDAMB231 = tested on: MDAMB231
Method: as §1

PANC1 = tested on: PANC1
Method: as §1

RDES = tested on: RDES
Method: as §1

SW620 = tested on: SW620
Method: as §1

COc1cc2ncc3c(c2cc1-c1cn(C)nc1C)n(-c1c(F)cncc1OC)c(=O)n3C [M4076] + CNCc1ccc(-c2cc(-c3nc(-c4ccc(S(=O)(=O)C(C)C)cc4)cnc3N)on2)cc1 [berzosertib]
relative cell growth
Settings | A549 | BXPC3 | COLO205 | DU145 | HL60 | HT1080 | MDAMB231 | PANC1 | RDES | SW620
concentration of first compound 0.0195 µM, concentration of partner 0 M | 1.18 ± 0.2 | 1.17 ± 0.22 | 1.18 ± 0.19 | 1.09 ± 0.096 | 1.14 ± 0.11 | 1.1 ± 0.02 | 1.06 ± 0.085 | 1.27 ± 0.16 | 1.1 ± 0.013 | 1.08 ± 0.14
concentration of first compound 0.0195 µM, concentration of partner 0.2 µM | 0.64 | 0.548 | 0.641 | 1.05 | 1.06 | 0.762 | 1.1 | 0.992 | 1.16 | 0.95
concentration of first compound 0.0781 µM, concentration of partner 0 M | 1.22 ± 0.21 | 1.25 ± 0.24 | 1.15 ± 0.18 | 1.12 ± 0.099 | 1.13 ± 0.1 | 0.574 ± 0.01 | 1.02 ± 0.082 | 1.2 ± 0.15 | 1.01 ± 0.012 | 1.09 ± 0.14
concentration of first compound 0.0781 µM, concentration of partner 0.2 µM | 0.574 | 0.643 | 0.668 | 1.09 | 1.12 | 0.753 | 0.932 | 1.36 | 1.16 | 0.848
concentration of first compound 0.313 µM, concentration of partner 0 M | 1.16 ± 0.2 | 1.17 ± 0.22 | 1.12 ± 0.18 | 1.11 ± 0.098 | 1.03 ± 0.096 | 0.481 ± 0.0086 | 0.93 ± 0.074 | 1.45 ± 0.18 | 0.941 ± 0.011 | 1.01 ± 0.13
concentration of first compound 0.313 µM, concentration of partner 0.2 µM | 0.267 | 0.481 | 0.373 | 0.774 | 0.788 | -0.0371 | 0.499 | 0.541 | 1.13 | 0.449
concentration of first compound 1 µM, concentration of partner 0 M | 0.924 | 0.952 | 0.959 | 0.98 | 0.862 | 0.54 | 0.858 | 0.96 | 0.836 | 0.958
concentration of first compound 1 µM, concentration of partner 0.0195 µM | 0.89 | 0.987 | 0.916 | 0.893 | 0.88 | 0.752 | 0.907 | 0.764 | 0.933 | 0.922
concentration of first compound 1 µM, concentration of partner 0.0781 µM | 0.431 | 0.78 | 0.37 | 0.862 | 0.707 | 0.155 | 0.708 | 0.526 | 0.872 | 0.646
concentration of first compound 1 µM, concentration of partner 0.313 µM | 0.0877 | 0.015 | 0.105 | 0.133 | 0.0883 | -0.168 | 0.198 | 0.0924 | 0.395 | 0.168
concentration of first compound 1 µM, concentration of partner 1.25 µM | 0.00284 | -0.096 | 0.0405 | -0.0604 | 0.00814 | -0.178 | -0.00535 | -0.0345 | 0.0966 | 0.0263
concentration of first compound 1 µM, concentration of partner 5 µM | 0.00285 | -0.0967 | -0.0244 | -0.0855 | -0.0212 | -0.234 | -0.032 | -0.0793 | -0.0939 | -0.014
concentration of first compound 1.25 µM, concentration of partner 0 M | 1.09 ± 0.19 | 1.08 ± 0.21 | 1.02 ± 0.16 | 1.05 ± 0.092 | 0.958 ± 0.089 | 0.332 ± 0.0059 | 0.775 ± 0.062 | 1.1 ± 0.14 | 0.877 ± 0.011 | 0.96 ± 0.12
concentration of first compound 1.25 µM, concentration of partner 0.2 µM | 0.153 | 0.321 | 0.208 | 0.496 | 0.344 | -0.114 | 0.328 | 0.278 | 0.973 | 0.293
concentration of first compound 5 µM, concentration of partner 0 M | 0.955 ± 0.16 | 0.894 ± 0.17 | 0.892 ± 0.14 | 0.872 ± 0.077 | 0.746 ± 0.07 | 0.478 ± 0.0086 | 0.695 ± 0.056 | 0.743 ± 0.095 | 0.681 ± 0.0083 | 0.916 ± 0.12
concentration of first compound 5 µM, concentration of partner 0.2 µM | 0.11 | 0.228 | 0.172 | 0.307 | 0.207 | -0.101 | 0.42 | 0.309 | 0.706 | 0.269

CNCc1ccc(-c2cc(-c3nc(-c4ccc(S(=O)(=O)C(C)C)cc4)cnc3N)on2)cc1 [berzosertib] + COc1cc2ncc3c(c2cc1-c1cn(C)nc1C)n(-c1c(F)cncc1OC)c(=O)n3C [M4076]
relative cell growth, concentration of partner 0 M
Settings | A549 | BXPC3 | COLO205 | DU145 | HL60 | HT1080 | MDAMB231 | PANC1 | RDES | SW620
concentration of first compound 0.0195 µM | 1.22 ± 0.22 | 1.18 ± 0.22 | 1.1 ± 0.16 | 1.08 ± 0.096 | 1.14 ± 0.12 | 2.08 ± 0.29 | 1.06 ± 0.1 | 1.12 ± 0.1 | 1.15 ± 0.026 | 1.1 ± 0.15
concentration of first compound 0.0781 µM | 0.999 ± 0.18 | 1.14 ± 0.21 | 0.981 ± 0.15 | 1.13 ± 0.1 | 1.1 ± 0.12 | 2.13 ± 0.3 | 1.09 ± 0.1 | 1.27 ± 0.11 | 1.14 ± 0.026 | 1.07 ± 0.15
concentration of first compound 0.2 µM | 0.464 | 0.588 | 0.622 | 1.03 | 0.809 | 0.626 | 0.976 | 0.892 | 1.01 | 0.795
concentration of first compound 0.313 µM | 0.294 ± 0.053 | 0.34 ± 0.063 | 0.353 ± 0.053 | 0.825 ± 0.073 | 0.53 ± 0.056 | 0.0933 ± 0.013 | 0.775 ± 0.073 | 0.482 ± 0.043 | 0.873 ± 0.02 | 0.494 ± 0.067
concentration of first compound 1.25 µM | 0.0316 ± 0.0058 | -0.112 ± 0.021 | 0.114 ± 0.017 | -0.0103 ± 0.0009 | 0.0485 ± 0.0051 | -0.162 ± 0.023 | 0.0906 ± 0.0085 | 0.094 ± 0.0084 | 0.254 ± 0.0058 | 0.087 ± 0.012
concentration of first compound 5 µM | -0.00795 ± 0.0013 | -0.0824 ± 0.015 | 0.00456 ± 0.00065 | -0.0587 ± 0.0052 | -0.0133 ± 0.0014 | -0.228 ± 0.032 | -0.057 ± 0.0054 | -0.0643 ± 0.0058 | -0.0925 ± 0.0021 | -0.01 ± 0.0014
